Assay results from a melting point compilation (Tetko et al.; mined from patent text by program, amines drawn as free bases though some values may be those of a salt).

Row | melting point | Structure (SMILES)
1 | 198 to 200 °C | Fc1ccccc1-c1noc2c(Cl)c(OCc3nnn[nH]3)ccc12
2 | 189 to 192 °C | O=c1c(CCCCCCCc2ccncc2)cc2cccnc2n1-c1cccc([N+](=O)[O-])c1
3 | 218 to 219 °C | O=C(CCl)Nc1ccc(C(O)(C(F)(F)F)C(F)(F)F)cc1O
4 | 194 to 195 °C | CNc1cccc2c1nc(-c1c(F)cccc1F)n2Cc1c(F)cccc1F
5 | 89 to 91 °C | CC(=O)SCC(Cc1ccccc1)C(=O)Nc1cccc(C(=O)N[C@@H](Cc2ccccc2)C(=O)OCc2ccccc2)c1 (some centres undefined)
6 | 170 to 172 °C | CN1CCC[C@H]1c1cnc(Cl)c(Cl)c1C(O)(c1ccccc1)c1ccccc1
7 | 104 to 105 °C | COCCOCc1c(F)cccc1-c1ccc2nc(-c3ccc(Cl)cc3)cn2c1
8 | 216 to 217 °C | O=C(O)CCc1cc2nc(C(F)(F)F)ccc2n1S(=O)(=O)c1cccc2cccnc12
9 | 170 °C | CCOc1ccc(F)cc1C(=O)c1sc2nc(C)c(C)cc2c1N
10 | 61 to 63 °C | FC(F)(F)c1nc(Cl)sc1C(=S)OCc1ccccc1
11 | 222 °C | O=C(COc1cc(-c2ccc([N+](=O)[O-])cc2)nc2cccc(C(F)(F)F)c12)N1CCOCC1
12 | 159 to 160 °C | O=C(O)c1ccccc1Oc1ccc(C(F)(F)F)cc1NS(=O)(=O)c1ccc(F)cc1
13 | 85 to 87 °C | COC(=O)C[C@H](O)C[C@H](O)C=Cc1c(-c2ccc(F)cc2)c(-c2ccccc2)c(C(=O)Nc2cccc(S(N)(=O)=O)c2)n1C(C)C
14 | 62 to 67 °C | CN(C(=O)OC(C)(C)C)c1cc(Sc2ccc(O)cc2)ccc1N
15 | 75 to 80 °C | Nc1cccc(OCc2csc(-c3ccccc3)n2)c1
16 | 172 to 174 °C | CC(C)CC(C(=O)c1cccc(Cl)c1)c1ccccc1NC(C)(C)C (centres undefined)
17 | > 300 °C | N=c1nc(Nc2ccccc2)nc2[nH]c3ccccc3n12
18 | 98 to 99.8 °C | CCOC(=O)Cn1c(-c2cccc(Cl)c2)nc2cccnc21
19 | 165 to 166 °C | C[C@]1(COC(=O)N2CCC(Oc3ccc(C(F)(F)F)cc3)CC2)Cn2cc([N+](=O)[O-])nc2O1
20 | 235 to 238 °C | Cc1ccccc1C(=O)Nc1ccc(C(=O)O)cn1
21 | 202 to 204 °C | CSc1ccc(-n2cnc3ccc(-c4nnc(C)o4)cc32)cc1
22 | 212 to 213 °C | CCn1cc(C(=O)O)c(=O)cc1-c1cccc(Cl)c1
23 | 205 to 208 °C | O=c1nc(NC(=S)Nc2ccccc2)c(F)cn1S(=O)(=O)c1ccccc1
24 | 152 to 154 °C | O=S(=O)(Nc1ccc(C2COc3cc(O)c(O)cc3C2)cc1)c1ccccc1 (centres undefined)
25 | 123 to 126 °C | Cc1cc(-n2nc(C(N)=O)nc2-c2ccccc2)ccc1F

Row | melting point | Structure (SMILES)
26 | 167 to 168 °C | COc1cc(Nc2ncc(C#N)c(-c3ccc(C(C)(C)N)cc3)n2)cc(OC)c1OC
27 | 65 to 80 °C | CCCCN(Cc1ccc(-c2ccccc2-c2nnn[nH]2)cc1)c1ncncc1C(=O)OCC(=O)OC
28 | 226 °C | O=C(NOC1CCCCO1)c1cnc(N2CCC(NS(=O)(=O)c3ccc4ccccc4c3)CC2)nc1 (centres undefined)
29 | 114 °C | O=S(=O)(c1ccc(F)cc1)N1CCCC1c1ccc(C(F)(F)F)cc1 (racemic)
30 | 109 to 110 °C | CN1C(C)(C)CC(O[Si](c2ccccc2)(c2ccccc2)c2ccccc2)CC1(C)C
31 | 174 to 176 °C | CN1CC(c2ccc(Cl)cc2)=NN(c2ccc(Cl)cc2)C1=O
32 | 76 to 78 °C | Cc1cc(C)c(S(=O)(=O)NC(CSc2ccccc2)C(F)(F)F)c(C)c1 (centres undefined)
33 | 214 to 215 °C | O=C(c1cccc(Nc2nc(-c3ccccc3)nc3ccccc23)c1)N1CCN(c2ncc(Cc3ccccc3)cn2)CC1
34 | 161 to 162 °C | O=S(=O)(Nc1cccc2cc(-c3ccccn3)[nH]c12)c1cccs1
35 | 258 to 260 °C | CC(=O)c1ccc2c(c1)C1(c3ccccc3-2)c2cc(C(C)=O)ccc2-c2ccc(C(C)=O)cc21
36 | 110 to 118 °C | CC(C)(C)ONC(=O)c1ccc(Cc2ccc(N)cc2)cc1
37 | 90 to 92 °C | CCC(OCCc1ccc(-c2ccc(Cl)cc2)cc1)C(=O)O (centres undefined)
38 | 140 to 142 °C | CN(C)c1ccc(N=Nc2ccccc2C(=O)NCCNC(=O)CI)cc1
39 | 153 to 155 °C | CCOc1cn(C)cc(-c2cccc(C(F)(F)F)c2)c1=S
40 | 73.6 to 73.9 °C | CCOC(=O)CCCCCOc1ccc(-c2nc(=O)c3ccccc3s2)cn1
41 | 260 °C | Sc1nc2cc(C(c3ccccc3)n3ccnc3)ccc2[nH]1 (centres undefined)
42 | 288 to 290 °C | N#CC1=C2C(=NC1=O)c1c(Sc3ccc(N)cc3)ccc3c(Sc4ccc(N)cc4)ccc2c13
43 | 55 to 56 °C | COCCCOc1cc(C[C@@H](C(=O)N2C(=O)OC[C@H]2Cc2ccccc2)C(C)C)ccc1OC
44 | 243 to 245 °C | O=C(CC(F)(F)F)NC[C@H]1CN(c2ccc3c(c2)CCCc2cn[nH]c2-3)C(=O)O1
45 | 164 to 165 °C | CN1CCN(c2ccc(-c3cnc4c(c3)N(S(=O)(=O)c3ccccc3Cl)CCN4)cn2)CC1
46 | 121 to 122 °C | CCOc1c(C#N)oc2c3ccccc3n(-c3ccccc3)c12
47 | 156 to 157 °C | CCn1c(=O)n(OCc2ccccc2)c(=O)c2cc(F)c(Cl)nc21
48 | 105 to 106 °C | CCc1c(C(F)(F)F)noc1NS(=O)(=O)c1ccccc1
49 | 153 to 156 °C | CC(SCc1nccc2ccccc12)C(=O)O (centres undefined)
50 | 115 to 116 °C | CC(=O)Oc1ccc(CCc2ccc(OC(C)=O)cc2)cc1

Continued, compound first:

Row | Structure (SMILES) | melting point
51 | N#CC(OC1OC2C(Br)C3CC1C2C3)c1cccc(Oc2ccccc2)c1 (centres undefined) | 65 °C
52 | CCCn1c(=O)c2[nH]c(-c3cc(C)n(CC(=O)Nc4ccc(C)c(C)c4)n3)nc2n(CCC)c1=O | 261 to 265 °C
53 | CCOC(=O)C1=CCCCC1S(=O)(=O)Nn1cccc1CC (centres undefined) | 77 to 78 °C
54 | CCCn1c(=O)c2c(nc(C=Cc3cc(OC)c(OC)c(OC)c3S(N)(=O)=O)n2C)n(CCC)c1=O | 243 to 245 °C
55 | Cc1ccc(-c2nc3ccc(CN4CCN(C)CC4)cc3[nH]2)cc1C#Cc1ccc(NC(C)C)nn1 | 129 to 130 °C
56 | CCCCNC(=O)NS(=O)(=O)c1cccc2c1CCCC2 | 173 to 175 °C
57 | CC(C)(C)NS(=O)(=O)c1ccsc1C1=CC(=O)CCC1 | 157 to 158 °C
58 | CCOC(=O)C(C(=O)OCC)c1cc(OC)ccc1[N+](=O)[O-] | 92 to 93 °C
59 | CCCOc1nc2sc(Cl)cc2c(=O)n1CCC | 62 to 65 °C
60 | CNC(=O)c1cc(N2CCOCC2)cc([N+](=O)[O-])c1 | 204 to 207 °C
61 | Cc1cc(NC(=O)C(C)(O)COc2ccc(OCCCl)cc2)ccc1[N+](=O)[O-] (centres undefined) | 131 to 133 °C
62 | CC1(C)OCC(CCn2cnc3c(N)nc(N)nc32)CO1 | 202 to 204 °C
63 | N#Cc1ccc2cc(O)ccc2c1 | 160 to 164 °C
64 | COC(=O)C1CC(=NO)c2c(Cl)cc(Cl)cc2N1 (centres undefined) | 216 to 217 °C
65 | CCCN(CCC)C1Cc2cccc(C(=O)O)c2NC1=O (centres undefined) | 214 to 217 °C
66 | CCSCc1cc(O)nc(N(C)C)n1 | 119 to 121 °C
67 | CCOCn1c(Nc2cc(C)cc(C)c2)c(CC)c(=O)[nH]c1=O | 175 to 176 °C
68 | Nc1ccccc1-c1cc[nH]n1 | 122 to 123 °C
69 | CCC(CC)n1cc(Br)nc(N2CCc3cc(OC)cc(Br)c32)c1=O | 133 to 135 °C
70 | Cc1c(C)c2c(c(C)c1O)CCC(C)(C#N)O2 (centres undefined) | 149 to 151 °C
71 | COc1c(C)cnc(CSc2nc3ncc(O)cc3[nH]2)c1C | 178 to 180 °C
72 | O=c1[nH]c2ccc(F)cc2c2cc(CO)nn12 | 295 to 297 °C
73 | COC(=O)CCCCCNC(=O)C(CSC(C)=O)Cc1ccccc1 (centres undefined) | 50 to 54 °C
74 | COc1cc2cc(COC(C)=O)c(C(=O)OC3OC(CO)C(O)C(O)C3O)c(-c3ccc4c(c3)OCO4)c2cc1OC (centres undefined) | 127 to 130 °C
75 | Cc1ncc(C#N)c(Nc2ccc3[nH]ccc3c2C)c1-c1cc2cc(CN3CCN(C)CC3)ccc2o1 | 218 to 220 °C

Row | Structure (SMILES) | melting point
76 | COC(CC(=O)c1cccc(Br)c1)C(=O)O (centres undefined) | 82.5 to 83.5 °C
77 | NC1CC(O)c2ccccc21 (centres undefined) | 108 to 110 °C
78 | O=[N+]([O-])c1cc(Cl)c2c(c1)C(F)(F)C(F)(F)S2 | 61.5 to 62 °C
79 | CCNS(=O)(=O)c1ccccc1C1CCCCC1 | 100 to 102 °C
80 | Cn1c(=O)c2c(ncn2Cc2noc(CCO)n2)n(C)c1=O | 145 °C
81 | NS(=O)(=O)c1ccsc1CO | 85 to 89 °C
82 | COC(=C(C)C#N)C(F)(F)F | 68 to 76.5 °C
83 | CCSc1ccc(C(=O)NCc2ccc3c(c2)C(=O)N(C2CCC(=O)NC2=O)C3=O)nn1 (centres undefined) | 205 to 207 °C
84 | CCN1CCc2nc(N3CCNCC3)ncc2C1=O | 205 to 210 °C
85 | CSC(=NC#N)N[C@@H]1c2cc(S(C)(=O)=O)ccc2OC(C)(C)[C@H]1O (relative stereo) | 219 to 220 °C
86 | O=C(CC(=O)Oc1cc(O)cc(O)c1)Oc1cc(O)cc(O)c1 | 258 to 260 °C
87 | C=CCOC[C@H](NC(=O)[C@@H](NC(=O)[C@H](Cc1ccc(OCC=C)cc1)NC(=O)OC(C)(C)C)C(C)C)C(=O)OC | 109 to 111 °C
88 | CSc1nccc(C)c1NC(=O)CCCCCCCCSc1nc2ccccc2s1 | 88 to 90 °C
89 | CC(C)N(C=Nc1ccncc1O)C(C)C | 77 to 79 °C
90 | COc1cc(OC)nc(NC(=O)NS(=O)(=O)c2nc(C)cc3c2C(=O)OC3)n1 | 149 to 153 °C
91 | CCC1OCc2c1cnc(C)c2O (centres undefined) | 172 °C
92 | COC(=O)C1CCC(n2ccn(-c3ccc4c(c3)CCC(C#N)C4)c2=O)CC1 (centres undefined) | 116 to 118 °C
93 | Cc1c2n(c(=O)n(Cc3ccccc3)c1=O)CCCS2 | 141 to 142 °C
94 | COc1ccc(-c2cc(F)c3c(c2)CC(CN)O3)cc1 (centres undefined) | > 250 °C
95 | CCCCN1CC(=O)N(c2cc(Cl)ccc2C)C1=S | 102 to 103 °C
96 | CC[C@@H]1C(=O)N(Cc2ccc(OC)cc2OC)[C@H]1CC(=O)O (relative stereo) | 131 °C
97 | N#CC(CCN1CCC(C(=O)ON2C(=O)CCC2=O)(c2ccccc2)CC1)(c1ccccc1)c1ccccc1 | 156 to 158 °C
98 | CSC(c1ccc(Cl)cc1)c1ccc(Cl)cc1 | 56 to 57 °C
99 | O=C(O)CCCCCCCCCN1C(=O)c2ccccc2C1=O | 58 to 60 °C
